Reference: paper PMC9945182 (Chemical Research in Toxicology, 2023)
Read-outs that look alike come from different tables or passages of the source.

Legend:
CYP2C19 = CYP2C19 (Homo sapiens, UniProt P33261); format: biochemical; conditions: 10 μM inhibitor; cotinine substrate; CYP2C19 microsomes
[1] = test system: human liver microsomes (HLM); assay: Inhibition of 3HC to 3HC-Gluc formation in human liver microsomes; format: biochemical; conditions: up to 100 μM CBD
cigarette smokers = conditions: single 800 mg oral dose, compared with a placebo group; cited from earlier work
UGT2B17 = target: T1, UGT2B17 (Homo sapiens, UniProt O75795); format: biochemical; conditions: UGT2B17 microsomes; 3HC as substrate; screening
T1 sequence (O75795 24-530): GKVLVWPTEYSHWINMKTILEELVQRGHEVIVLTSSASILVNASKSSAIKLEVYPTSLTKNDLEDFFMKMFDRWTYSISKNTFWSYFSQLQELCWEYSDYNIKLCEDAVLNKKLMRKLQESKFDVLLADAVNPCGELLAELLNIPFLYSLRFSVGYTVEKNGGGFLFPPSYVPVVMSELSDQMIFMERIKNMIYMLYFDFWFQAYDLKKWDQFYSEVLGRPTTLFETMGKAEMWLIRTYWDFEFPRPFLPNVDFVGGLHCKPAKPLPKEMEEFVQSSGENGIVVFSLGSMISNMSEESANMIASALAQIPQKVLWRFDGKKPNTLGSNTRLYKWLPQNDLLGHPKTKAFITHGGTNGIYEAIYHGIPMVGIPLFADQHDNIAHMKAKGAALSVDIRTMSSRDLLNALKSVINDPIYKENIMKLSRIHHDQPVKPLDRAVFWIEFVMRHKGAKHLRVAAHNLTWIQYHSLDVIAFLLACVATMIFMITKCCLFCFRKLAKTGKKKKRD

[2] = to protein and labware; cited from earlier work
UGT2B7 = target: T2, UGT2B7 (Homo sapiens, UniProt P16662); format: biochemical; conditions: for decrease in 3HC-Gluc formation: 3HC 30 mM, UGT2B7 microsomes
T2 sequence (P16662 24-529): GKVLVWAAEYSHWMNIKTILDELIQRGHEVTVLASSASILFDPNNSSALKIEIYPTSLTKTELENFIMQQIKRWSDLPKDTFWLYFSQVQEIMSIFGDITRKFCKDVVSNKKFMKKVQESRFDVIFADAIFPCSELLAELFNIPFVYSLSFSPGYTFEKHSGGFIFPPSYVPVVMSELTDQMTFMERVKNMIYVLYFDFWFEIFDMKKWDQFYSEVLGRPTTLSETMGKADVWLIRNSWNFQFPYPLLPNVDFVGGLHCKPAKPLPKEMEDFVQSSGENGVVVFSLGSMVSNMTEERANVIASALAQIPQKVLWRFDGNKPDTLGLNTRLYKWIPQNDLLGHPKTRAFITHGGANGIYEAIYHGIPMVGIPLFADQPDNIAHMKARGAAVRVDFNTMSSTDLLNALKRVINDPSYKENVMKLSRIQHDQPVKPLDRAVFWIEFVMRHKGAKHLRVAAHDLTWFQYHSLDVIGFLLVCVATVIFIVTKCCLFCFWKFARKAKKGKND

CYP2C19, sequence (P33261 whole entry): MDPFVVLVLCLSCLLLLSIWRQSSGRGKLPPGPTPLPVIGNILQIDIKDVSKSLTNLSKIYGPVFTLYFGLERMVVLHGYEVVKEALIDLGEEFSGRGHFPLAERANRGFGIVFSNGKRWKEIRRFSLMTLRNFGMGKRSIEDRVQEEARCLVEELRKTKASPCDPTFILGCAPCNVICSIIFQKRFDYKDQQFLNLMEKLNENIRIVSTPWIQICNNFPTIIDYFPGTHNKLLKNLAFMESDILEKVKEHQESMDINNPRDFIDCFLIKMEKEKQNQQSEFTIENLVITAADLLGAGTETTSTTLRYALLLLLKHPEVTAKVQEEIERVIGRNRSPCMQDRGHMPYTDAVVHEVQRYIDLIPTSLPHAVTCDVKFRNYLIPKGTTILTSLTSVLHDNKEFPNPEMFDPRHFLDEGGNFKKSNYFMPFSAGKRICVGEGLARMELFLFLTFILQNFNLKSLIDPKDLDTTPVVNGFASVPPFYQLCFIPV

| Compound | inhibition of COX formation (CYP2C19) | inhibition of 3HC-Gluc formation [1] | effect on cigarette cues (cigarette smokers) | effect on 3HC-Gluc formation (UGT2B17) | nonspecific binding [2] | decrease in 3HC-Gluc formation (UGT2B7; 1 μM CBD) | decrease in 3HC-Gluc formation (UGT2B7; 10 μM CBD) | inhibition at 100 μM (UGT2B7; human, microsomes from UGT2B7-overexpressing HEK293 cells, pH 7.4, probe 3HC (30 mM), 3HC-Gluc formation) |
| --- | --- | --- | --- | --- | --- | --- | --- | --- |
| C=C(C)[C@@H]1CCC(CO)=C[C@H]1c1c(O)cc(CCCCC)cc1O [7-OH-CBD, 7-hydroxy-cannabidiol] | 15% |  |  |  |  |  |  |  |
| C=C(C)[C@@H]1CCC(C)=C[C@H]1c1c(O)cc(CCCCC)cc1O [CBD, cannabidiol] |  | < 45% | reduced the salience and pleasantness of cigarette cues | not inhibited | 70–90% | 35% | 55% | > 50% |
